Test results published in patent publication US12077503B2, “Substituted cyclic amides and their use as herbicides” (FMC CORPORATION, priority 2015, dated 2024).

Legend:
Type in all cases: in vivo
[1] = system: Kochia (Kochia scoparia); assay: Test A preemergence; settings: Bassia scoparia, pre-emergence, 240 h, 0 to 100 scale where 0 is no effect and 100 is complete control, read-out: Kochia plant response rating; for pest or weed control at 31 g/ha: 31 g ai/ha, Preemergence; for pest or weed control at 125 g/ha: 125 g ai/ha, preemergence, visual injury rating, approximately 10 d
Procedure, shortened: (§1)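 Each rating is a visual injury score from 0 to 100 given about 10 d after treatment, judged against untreated controls kept alongside in the greenhouse. In loam soil–sand blend, seeds got a preemergence directed soil spray, while postemergence plants were 2 to 10 cm tall at spraying.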

[2] = system: giant foxtail (Setaria faberii); assay: Test A preemergence; settings: Setaria faberi, pre-emergence, 240 h, 0 to 100 scale where 0 is no effect and 100 is complete control, read-out: Foxtail, Giant plant response rating; for pest or weed control at 31 g/ha: 31 g ai/ha, Preemergence; for pest or weed control at 125 g/ha: 125 g ai/ha, preemergence, visual injury rating, approximately 10 d
Procedure, shortened: as §1

[3] = system: pigweed (Amaranthus retroflexus); assay: Test A preemergence; settings: Amaranthus retroflexus, pre-emergence, 240 h, 0 to 100 scale where 0 is no effect and 100 is complete control, read-out: Pigweed plant response rating; for pest or weed control at 31 g/ha: 31 g ai/ha, Preemergence; for pest or weed control at 125 g/ha: 125 g ai/ha, preemergence, visual injury rating, approximately 10 d
[4] = system: ryegrass, Italian (Italian ryegrass, Lolium multiflorum); assay: Test A preemergence; settings: Lolium multiflorum, pre-emergence, 240 h, 0 to 100 scale where 0 is no effect and 100 is complete control, read-out: Ryegrass, Italian plant response rating; for pest or weed control at 31 g/ha: 31 g ai/ha, Preemergence; for pest or weed control at 125 g/ha: 125 g ai/ha, preemergence, visual injury rating, approximately 10 d
Procedure, shortened: as §1

[5] = system: barnyardgrass (Echinochloa crus-galli); assay: Test A preemergence; settings: Echinochloa crus-galli, pre-emergence, 240 h, 0 to 100 scale where 0 is no effect and 100 is complete control, read-out: Barnyardgrass plant response rating; for pest or weed control at 31 g/ha: 31 g ai/ha, Preemergence; for pest or weed control at 125 g/ha: 125 g ai/ha, preemergence, visual injury rating, approximately 10 d
Procedure, shortened: as §1

[6] = system: ragweed (common ragweed, Ambrosia elatior); assay: Test A preemergence; settings: Ambrosia artemisiifolia, pre-emergence, 240 h, 0 to 100 scale where 0 is no effect and 100 is complete control, read-out: Ragweed plant response rating; for pest or weed control at 31 g/ha: 31 g ai/ha, Preemergence; for pest or weed control at 125 g/ha: 125 g ai/ha, preemergence, visual injury rating, approximately 10 d
Procedure, shortened: as §1

[7] = system: blackgrass (Alopecurus myosuroides); assay: Test A postemergence; settings: Alopecurus myosuroides, post-emergence, 240 h, Postemergence, read-out: Blackgrass plant response rating (0 to 100 scale); for pest or weed control at 125 g/ha: 125 g ai/ha, visual rating about 10 d after treatment; for pest or weed control at 31 g/ha: 31 g ai/ha, 0 is no effect, 100 is complete control
Procedure, shortened: as §1

[8] = system: Kochia (Kochia scoparia); assay: Test A postemergence; settings: Bassia scoparia, post-emergence, 240 h, Postemergence, read-out: Kochia plant response rating (0 to 100 scale); for pest or weed control at 125 g/ha: 125 g ai/ha, visual rating about 10 d after treatment; for pest or weed control at 31 g/ha: 31 g ai/ha, 0 is no effect, 100 is complete control
Procedure, shortened: as §1

[9] = system: giant foxtail (Setaria faberii); assay: Test A postemergence; settings: Setaria faberi, post-emergence, 240 h, Postemergence, read-out: Foxtail, Giant plant response rating (0 to 100 scale); for pest or weed control at 125 g/ha: 125 g ai/ha, visual rating about 10 d after treatment; for pest or weed control at 31 g/ha: 31 g ai/ha, 0 is no effect, 100 is complete control
Procedure, shortened: as §1

[10] = system: pigweed (Amaranthus retroflexus); assay: Test A postemergence; settings: Amaranthus retroflexus, post-emergence, 240 h, Postemergence, read-out: Pigweed plant response rating (0 to 100 scale); for pest or weed control at 125 g/ha: 125 g ai/ha, visual rating about 10 d after treatment; for pest or weed control at 31 g/ha: 31 g ai/ha, 0 is no effect, 100 is complete control
Procedure, shortened: as §1

[11] = system: wheat (Triticum aestivum); assay: Test A postemergence; settings: Triticum aestivum, post-emergence, 240 h, Postemergence, read-out: Wheat plant response rating (0 to 100 scale); for plant injury at 125 g/ha: 125 g ai/ha, visual rating about 10 d after treatment; for plant injury at 31 g/ha: 31 g ai/ha, 0 is no effect, 100 is complete control
Procedure, shortened: as §1

[12] = system: ryegrass, Italian (Italian ryegrass, Lolium multiflorum); assay: Test A postemergence; settings: Lolium multiflorum, post-emergence, 240 h, Postemergence, read-out: Ryegrass, Italian plant response rating (0 to 100 scale); for pest or weed control at 125 g/ha: 125 g ai/ha, visual rating about 10 d after treatment; for pest or weed control at 31 g/ha: 31 g ai/ha, 0 is no effect, 100 is complete control
Procedure, shortened: as §1

[13] = system: Galium (catchweed bedstraw, Galium aparine); assay: Test A postemergence; settings: Galium, post-emergence, 240 h, Postemergence, read-out: Galium plant response rating (0 to 100 scale); for pest or weed control at 125 g/ha: 125 g ai/ha, visual rating about 10 d after treatment; for pest or weed control at 31 g/ha: 31 g ai/ha, 0 is no effect, 100 is complete control
Procedure, shortened: as §1

[14] = system: barnyardgrass (Echinochloa crus-galli); assay: Test A postemergence; settings: Echinochloa crus-galli, post-emergence, 240 h, Postemergence; for pest or weed control at 125 g/ha: 125 g ai/ha, visual rating about 10 d after treatment, read-out: Barnyardgrass plant response rating (0 to 100 scale, 0 no effect, 100 complete control); for pest or weed control at 31 g/ha: 31 g ai/ha, 0 is no effect, 100 is complete control, read-out: Barnyardgrass plant response rating (0 to 100 scale)
Procedure, shortened: as §1

[15] = system: corn (Zea mays); assay: Test A postemergence; settings: Zea mays, post-emergence, 240 h, Postemergence, read-out: Corn plant response rating (0 to 100 scale); for plant injury at 125 g/ha: 125 g ai/ha, visual rating about 10 d after treatment; for plant injury at 31 g/ha: 31 g ai/ha, 0 is no effect, 100 is complete control
Procedure, shortened: as §1

[16] = system: ragweed (common ragweed, Ambrosia elatior); assay: Test A postemergence; settings: Ambrosia artemisiifolia, post-emergence, 240 h, Postemergence, read-out: Ragweed plant response rating (0 to 100 scale); for pest or weed control at 125 g/ha: 125 g ai/ha, visual rating about 10 d after treatment; for pest or weed control at 31 g/ha: 31 g ai/ha, 0 is no effect, 100 is complete control
Procedure, shortened: as §1

[17] = system: sedge, umbrella (small-flower umbrella sedge, Cyperus difformis); assay: Test B flooded paddy test; settings: Cyperus difformis, 250 g ai/ha, Flood; 0 to 100 scale where 0 is no effect and 100 is complete control; read-out: Sedge, Umbrella plant response rating
Procedure, shortened: (§2)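 Response scored visually against untreated controls, 0 = no effect and 100 = complete control, 13–15 d after treatment in the greenhouse. Compounds added to paddy water held 3 cm above soil surface. Treatment given at 2-leaf stage.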

[18] = system: barnyardgrass (Echinochloa crus-galli); assay: Test B flooded paddy test; settings: Echinochloa crus-galli, 250 g ai/ha, Flood; 0 to 100 scale where 0 is no effect and 100 is complete control; read-out: Barnyardgrass plant response rating
Procedure, shortened: as §2

[19] = system: rice (Oryra sativa); assay: Test B flooded paddy test; settings: Oryza sativa, 250 g ai/ha, Flood; 0 to 100 scale where 0 is no effect and 100 is complete control; read-out: Rice plant response rating
Procedure, shortened: as §2

[20] = system: ducksalad (Heteranthera limosa); assay: Test B flooded paddy test; settings: Heteranthera limosa, 250 g ai/ha, Flood; 0 to 100 scale where 0 is no effect and 100 is complete control; read-out: Ducksalad plant response rating
Procedure, shortened: as §2

CN1C[C@H](c2ccc3c(c2)C(F)(F)C(F)(F)O3)[C@@H](C(=O)Nc2cccc(F)c2F)C1=O [Compound 1271]
30%: pest or weed control at 31 g/ha [1] | pest or weed control at 125 g/ha [7] | pest or weed control at 125 g/ha [10] | pest or weed control at 125 g/ha [12] | plant injury at 31 g/ha [15]
40%: pest or weed control at 125 g/ha [1] | pest or weed control at 125 g/ha [8] | pest or weed control at 31 g/ha [14] | plant injury at 125 g/ha [15] | pest or weed control at 250 g/ha [18]
20%: pest or weed control at 125 g/ha [6] | pest or weed control at 31 g/ha [8] | pest or weed control at 31 g/ha [9] | pest or weed control at 31 g/ha [10] | plant injury at 31 g/ha [11]
0%: pest or weed control at 31 g/ha [3] | pest or weed control at 31 g/ha [6] | pest or weed control at 31 g/ha [7] | pest or weed control at 31 g/ha [12] | pest or weed control at 125 g/ha [16] | pest or weed control at 31 g/ha [16] | pest or weed control at 250 g/ha [17] | pest or weed control at 250 g/ha [19]
50%: pest or weed control at 125 g/ha [3]
60%: plant injury at 125 g/ha [11] | pest or weed control at 125 g/ha [13] | pest or weed control at 31 g/ha [13] | pest or weed control at 125 g/ha [14]
90%: pest or weed control at 125 g/ha [2] | pest or weed control at 125 g/ha [4] | pest or weed control at 31 g/ha [5] | pest or weed control at 125 g/ha [5] | pest or weed control at 250 g/ha [20]
80%: pest or weed control at 31 g/ha [2] | pest or weed control at 125 g/ha [9]
70%: pest or weed control at 31 g/ha [4]

O=C1NC[C@H](c2cc(Cl)cc(Cl)c2)[C@H]1C(=O)Nc1cccc(F)c1F [Compound 1273]
0%: pest or weed control at 31 g/ha [1] | pest or weed control at 31 g/ha [3] | pest or weed control at 31 g/ha [4] | pest or weed control at 31 g/ha [6] | pest or weed control at 125 g/ha [6] | pest or weed control at 31 g/ha [7] | pest or weed control at 31 g/ha [8] | pest or weed control at 31 g/ha [10] | plant injury at 31 g/ha [11] | pest or weed control at 31 g/ha [12] | plant injury at 31 g/ha [15] | pest or weed control at 125 g/ha [16] | pest or weed control at 31 g/ha [16] | pest or weed control at 250 g/ha [17] | pest or weed control at 250 g/ha [19]
30%: plant injury at 125 g/ha [11] | pest or weed control at 250 g/ha [18]
80%: pest or weed control at 31 g/ha [2] | pest or weed control at 125 g/ha [5] | pest or weed control at 125 g/ha [9]
90%: pest or weed control at 125 g/ha [2] | pest or weed control at 250 g/ha [20]
20%: pest or weed control at 125 g/ha [3] | pest or weed control at 125 g/ha [7]
50%: pest or weed control at 125 g/ha [1] | pest or weed control at 125 g/ha [13] | pest or weed control at 31 g/ha [14]
60%: pest or weed control at 31 g/ha [5] | pest or weed control at 125 g/ha [8] | pest or weed control at 31 g/ha [9] | pest or weed control at 125 g/ha [14] | plant injury at 125 g/ha [15]
40%: pest or weed control at 125 g/ha [4] | pest or weed control at 125 g/ha [10] | pest or weed control at 125 g/ha [12] | pest or weed control at 31 g/ha [13]
